Test results reported in article PMC2797259 (The Journal of Biological Chemistry, 2009).

Target: T1, BacA (Bacillus subtilis, UniProt P39638)
T1 sequence (P39638 1-204): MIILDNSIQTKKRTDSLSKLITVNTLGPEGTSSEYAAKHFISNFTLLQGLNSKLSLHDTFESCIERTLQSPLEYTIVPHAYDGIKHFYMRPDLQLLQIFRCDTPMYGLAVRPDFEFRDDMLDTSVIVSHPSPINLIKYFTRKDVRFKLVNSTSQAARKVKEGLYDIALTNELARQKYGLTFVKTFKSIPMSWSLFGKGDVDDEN
Assay: HPLC, UV, 1H NMR and ESI-MS of products
Type: biochemical
Details: decarboxylation; Tris-HCl pH 8.1

Structure (SMILES): O=C(O)C(=O)CC1(C(=O)O)C=CC(O)C=C1 (stereo not shown) [prephenate]
- HPLC, UV, 1H NMR and ESI-MS of products: prephenate is a substrate for BacA and not for BacB
